Ends that are not written are not given here.
Tests used:
Cyclin H (CCNH) = target: T1, Cyclin H (CCNH) (Homo sapiens, UniProt P51946); assay: Surface plasmon resonance (SPR) on BIAcore; conditions: binding to CCNH; for kon: association rate, read-out: Ka
T1 construct: purchased Sino Biological Inc. Lot; ME12NO2769 (a lot number; catalogue number not given); host or cells: E. coli
T1 sequence (P51946 1-323): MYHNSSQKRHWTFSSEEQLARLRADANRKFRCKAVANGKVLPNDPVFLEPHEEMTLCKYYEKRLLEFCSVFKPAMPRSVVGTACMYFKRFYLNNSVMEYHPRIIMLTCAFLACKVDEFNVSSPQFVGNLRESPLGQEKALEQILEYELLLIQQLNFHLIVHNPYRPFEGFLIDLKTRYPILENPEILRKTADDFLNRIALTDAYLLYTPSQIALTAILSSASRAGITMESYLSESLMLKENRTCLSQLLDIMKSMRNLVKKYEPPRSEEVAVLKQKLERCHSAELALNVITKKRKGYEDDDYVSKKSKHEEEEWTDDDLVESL
Method: Recombinant Cyclin H (CCNH) protein with a C-HIS tag (Lot. ME12NO2769, 38.46 kDa) was obtained from Sino Biological Inc. and stored at −80 °C. In short, the cyclin H (Homo sapiens) gene was amplified by PCR and cloned into an expression vector which was transformed into E. coli followed by the selection and establishment of high expression transformants. The protein was purified using immobilized metal ion affinity chromatography and dissolved in PBS (pH 7.4). SPR measurement was performed with Biacore T200 instrument (GE), at 25 °C, with a flow rate of 30 μL/min. CM5 sensor chips, HBS-EP running buffer and the Amine Coupling Kit, including 1-ethyl-3(3-dimethylaminopropyl) carbodiimide hydrochloride (EDC), N-hydroxysuccinimide (NHS), 1.0 M ethanolamine-HCl (pH 8.5) were purchased from GE. The binding properties of candidalysin to CCNH were evaluated upon immobilization of CCNH onto CM5 chip surface in flow cell 2 (FC-2) using Biacore Amine Coupling Kit according to the manufacturer’s instructions. CCNH was diluted to 20 μg/ml in acetate buffer (pH 4.0) in advance and immobilized on the CM5 Chip following the EDC/NHS protocol. The reached immobilized target level was 1200 RU. The reference flow cell (FC-1) was blank-immobilized following the templated procedure. BIAcore measurements were performed starting from a 1:1 serial dilution of candidalysin following the templated multicycle analysis (association time 120 s, dissociation time 150 s, flow 30 μL/min). The SPR measurement for Ece1-II, Ece1-IV, Ece1-V and human cathelicidin (Solarbio, CLP0454) to CCNH were performed with Biacore 8 K instrument (GE) by PBST running buffer, and the other conditions were the same.

A549 cells = assay: Western blot of CCNH and γ-H2AX, A549 and CCNH-KD A549 cells; format: cell-based; conditions: A549, 10 μM, 4 h
Method: (§1) Cells were lysed with cell lysis buffer (Beyotime, #P0013) on ice for 30 min. The supernatant of cell lysate was then collected in a table-top refrigerated centrifuge at 4 °C and 14,000 × g for 10 min. Protein concentration was determined by Pierce™ BCA Protein Assay Kit (Thermo Scientific™, #23227). Antibodies against the following proteins were used for Western blotting analysis: CCNH antibody (CST,Rabbit Source, Cat#2927, 1:1000 dilution), gama-H2AX antibody (CST, Rabbit Source, Cat#97185, 1:1000 dilution), GAPDH (D16H11) XP® Rabbit mAb (CST, Rabbit Source, Cat#5174 S, 1:1000 dilution), Anti-CDK2 (phospho T160) + CDK1 (phospho T161) antibody (Abcam, Rabbit Source, Cat#EPR17621, 1:1000 dilution), Anti-rabbit IgG, HRP-linked Antibody (CST, Goat Source, Cat#7074, 1:5000 dilution), […] Tag (D6W5B) Rabbit mAb (CST, Rabbit Source, Cat#14793, 1:1000 dilution), GFP (4B10) Mouse mAb (CST, Mouse Source, Cat #2955, 1:1000 dilution), Anti-mouse IgG,HRP-linked antibody (CST, Goat Source, Cat#7076, 1:5000 dilution). Membranes were treated with SuperSignal™ West Pico PLUS Chemiluminescent Substrate (Thermo Scientific™, #34577) prior to visualization in the Chemiluminescence Imaging Analysis System (BG-gdsAUTO720, Baygene). GAPDH was used as the loading control.

FaDu cells = assay: Western blot of CCNH and γ-H2AX, FaDu cells; format: cell-based; conditions: comparison toxins / low-dose Triton X-100
Method: as §1

For `CC[C@H](C)[C@H](NC(=O)CNC(=O)[C@H](C)NC(=O)[C@@H](NC(=O)[C@@H](NC(=O)[C@H](CO)NC(=O)[C@H](CC(=O)O)NC(=O)[C@@H](NC(=O)[C@H](CC(=O)O)NC(=O)[C@@H](N)CCC(=O)O)[C@@H](C)CC)C(C)C)C(C)C)C(=O)N[C@H](C(=O)N[C@@H](C)C(=O)N[C@@H](CC(=O)O)C(=O)N[C@@H](CCSC)C(=O)N1CCC[C@H]1C(=O)N[C@@H](Cc1ccccc1)C(=O)N[C@H](C(=O)N[C@H](C(=O)N[C@@H](CCCNC(=N)N)C(=O)N[C@@H](C)C(=O)N[C@H](C(=O)N[C@@H](CC(=O)O)C(=O)N[C@H](C(=O)N[C@@H](C)C(=O)N[C@@H](CCSC)C(=O)N[C@H](C(=O)N[C@@H](CO)C(=O)N[C@H](C(=O)N[C@@H](C)C(=O)N[C@@H](CO)C(=O)N[C@H](C(=O)N[C@@H](CCCCN)C(=O)N[C@@H](CCCNC(=N)N)C(=O)O)[C@@H](C)O)C(C)C)[C@@H](C)O)[C@@H](C)O)C(C)C)C(C)C)C(C)C)[C@@H](C)CC` [Ece1-IV], the kon (Cyclin H (CCNH)) was 49.8 M⁻¹ s⁻¹.
`CC[C@H](C)[C@H](NC(=O)[C@H](CO)NC(=O)[C@H](CCC(N)=O)NC(=O)[C@H](CCC(N)=O)NC(=O)[C@@H](NC(=O)CNC(=O)[C@@H](NC(=O)[C@H](C)NC(=O)[C@@H](NC(=O)[C@H](CCCNC(=N)N)NC(=O)[C@H](C)NC(=O)[C@@H](NC(=O)[C@@H](NC(=O)[C@H](CCC(=O)O)NC(=O)[C@@H]1CCCN1C(=O)[C@H](CC(C)C)NC(=O)[C@H](CCCNC(=N)N)NC(=O)[C@@H](NC(=O)[C@@H](NC(=O)[C@H](C)NC(=O)[C@H](CC(N)=O)NC(=O)[C@H](C)NC(=O)[C@@H](NC(=O)[C@H](CC(=O)O)NC(=O)[C@H](CC(=O)O)NC(=O)[C@H](CC(N)=O)NC(=O)[C@H](C)NC(=O)CNC(=O)[C@@H](N)CC(=O)O)C(C)C)C(C)C)C(C)C)[C@@H](C)CC)C(C)C)C(C)C)[C@@H](C)O)C(C)C)C(=O)N[C@@H](CCC(=O)O)C(=O)N[C@@H](CC(N)=O)C(=O)N[C@@H](C)C(=O)N[C@@H](CCCCN)C(=O)N[C@@H](CCCNC(=N)N)C(=O)O` [Ece1-V] was tested, and the kon (Cyclin H (CCNH)) was 228 M⁻¹ s⁻¹.
`CN(C)C/C=C/C(=O)Nc1ccc(C(=O)Nc2cccc(Nc3ncc(Cl)c(-c4c[nH]c5ccccc45)n3)c2)cc1` [THZ1] was tested, and the “CCNH and γ-H2AX expression” value (A549 cells) was “prominently elevated CCNH and γ-H2AX expression”.
FKRIVQRIKDFLRNLVPRTES [Amp] showed a kon (Cyclin H (CCNH)) of 3040 M⁻¹ s⁻¹ and a Kd (Cyclin H (CCNH); column pK, row KD (M)) of 6.26e-05 M.
Triton X-100 was tested, and the “DNA damage (CCNH and γ-H2AX expression)” value (FaDu cells) was “failed to induce severe DNA damage”.
In the case of mellitin: pore forming toxin, the “DNA damage (CCNH and γ-H2AX expression)” value (FaDu cells) is reported as “failed to induce severe DNA damage”.

Source: article PMC10899660, “Global fungal-host interactome mapping identifies host targets of candidalysin” (Nature Communications, 2024)
